Test results taken from PubChem BioAssay (NCI).
Values joined by “and” are separate entries in the source; they are usually repeats but may differ in a detail not shown here. Equal values may be shown once.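 Five concentrations, 48 hours, 96-well plates. GI50: concentration for 50% inhibition of growth. TGI denotes the concentration required for complete inhibition of growth.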

Legend:
Assay in all cases: NCI anticancer screen, dose series, 48 h
[1] = test system: CCRF-CEM leukemia
[2] = test system: HOP-92 NSCLC
[3] = test system: K-562 leukemia
[4] = test system: KM12 colon
[5] = test system: NCI-H23 lung
[6] = test system: OVCAR-8 ovarian
[7] = test system: SK-OV-3 ovarian
[8] = test system: SW-620 colon
[9] = test system: NCI-H522 lung
[10] = test system: RPMI-8226 leukemia

Row | SMILES | TGI [1] [µM] | TGI [2] [µM] | TGI [3] | TGI [4] [µM] | TGI [5] [µM] | TGI [6] [µM] | TGI [7] | TGI [8] | GI50 [2] [µM] | GI50 [3] | GI50 [4] | GI50 [5] [µM] | GI50 [9] [µM] | TGI [9] [µM] | GI50 [6] [µM] | GI50 [10] [µM] | TGI [10] [µM] | GI50 [7] [µM] | GI50 [8] | GI50 [1] [µM]
1 | Cc1ccc(-c2nc3c(C(=O)NCCN(C)C)cccc3[nH]2)cc1 | 47.4 | 32.4 | 50.5 µM | > 100 | 30.3 | 78.3 | 72.8 µM | 28.6 µM |  |  |  |  |  |  |  |  |  |  |  | 
2 | Oc1ccccc1Nc1nc2ccccc2c2occc12 |  | 19.5 | > 100 µM | 50.7 | 17.5 | 35.8 | 25.2 µM | 26 µM | 5.73 | > 100 µM | 12.5 µM | 4.48 | 8.36 | 24.2 | 15.4 | 9.11 | 57.8 | 11.1 | 13.2 µM | 
3 | Cc1[nH]n(-c2ccc(S(=O)(=O)O)cc2)c(=O)c1N=Nc1ccccc1 |  | > 100 | > 100 µM | > 100 | > 100 | > 100 | > 100 µM | > 100 µM |  |  |  |  |  | > 100 |  |  | > 100 |  |  | 
4 | CN1C(=O)c2cc([N+](=O)[O-])ccc2[C@H]2C(=O)c3cc4c(cc3[C@H]21)OCO4 |  |  | > 100 µM |  | 0.796 |  | > 100 µM | > 100 µM | 1.49 | 0.199 µM | 0.337 µM | 0.21 | < 0.0179 | 9.42 | 0.0702 | 0.0435 |  | 0.588 | 0.0481 µM | 
5 | CCN(CC)CCCNc1nc2ccccc2c2c(=O)c3cc(Cl)ccc3sc12 | 8.68 | 6.58 | 5.51 µM | 3.24 | 15.1 | 15.7 |  | 3.41 µM | 1.57 | 2.29 µM | 1.79 µM | 3.69 | 2.02 | 4.41 | 3.26 | 3.2 | 10.1 |  | 1.77 µM | 2.81
6 | CN(C)CC(C)(C)C(/C=C/c1ccccc1)=N\Nc1ccccc1 | 16.2 |  | 0.828 µM | 26.6 | 23.5 | 27.5 | 38.8 µM | 10.4 µM |  |  |  |  |  | 23.9 |  |  | 19.4 |  |  | 
7 | Cn1cnc([N+](=O)[O-])c1Sc1nc2cccnc2s1 |  | 33.9 |  | > 100 |  | 90.1 | > 100 µM | 26.6 µM |  |  |  |  |  |  |  |  | 60.4 |  |  | 
8 | Cc1ccc(/C=C/C(=O)c2ccc(N)cc2)c(C)c1 |  | 4.43 | 4.84 µM | 16.8 | 5.21 |  | 31.3 µM | 3.88 µM | 1.96 | 2.03 µM | 4.38 µM | 2.19 | 0.379 | 1.67 |  | 2.12 | 4.99 | 16.5 | 1.92 µM | 
9 | COC(=O)c1oc2c(O)c(OC)c(Br)cc2c1C | 67.6 |  | > 100 µM | 47.6 |  | 91.7 |  | 82.5 µM |  | 34.4 µM | 21.2 µM |  | 37.4 | > 100 | 28.7 | 20.9 | 47.8 |  | 30.5 µM | 25
10 | COc1ccc2cc3[n+](cc2c1OC)CCc1cc2c(cc1-3)OCO2 |  |  | > 100 µM and > 49.7 µM and 199 µM |  |  |  | > 100 µM and 194 µM | > 100 µM and > 73.8 µM and 170 µM | 8.54 | 12.3 µM and 11 µM and 23.5 µM | 2.79 µM and 4.27 µM | 6.34 |  |  | 3.69 |  | > 100 | 38 | 14.8 µM and 25.2 µM | 9.29
11 | COCOCc1cc(OCc2ccccc2)c(OC)cc1Br | > 100 | > 100 | > 100 µM | > 100 | > 100 | > 100 |  | > 100 µM |  |  |  |  |  |  |  |  | > 100 |  |  | 
12 | CC(C)(C)c1cn2cccc(C(=O)N3CCN(CC(=O)Nc4ccc(Cl)cc4C(=O)c4ccccc4Cl)CC3)c2n1 | 13.7 |  | > 100 µM | 22.4 | > 100 | 77.4 | > 100 µM | 29.1 µM |  | > 100 µM | 5.68 µM | 18.8 | 12.7 | 52.3 | 6.84 | 2.67 | 7.26 | 27.5 | 7.81 µM | 3.39
13 | CC(=O)c1c(O)ccc2c(C)c(C(=O)O)oc12 | > 100 | > 100 | > 100 µM | > 100 | > 100 | > 100 |  | > 100 µM | > 100 | > 100 µM | > 100 µM | > 100 | > 100 | > 100 | > 100 | > 100 | > 100 |  | > 100 µM | > 100
14 | N#CCCN(CCC#N)c1ccc(/C=N\c2nc(-c3ccccc3)cs2)cc1 |  | > 100 | > 100 µM |  | > 100 | > 100 | > 100 µM | > 100 µM |  |  |  |  |  | > 100 |  |  | > 100 |  |  | 
15 | C=CCC12CC(=O)C=C1CCC1(C2)OCCO1 (stereo unspecified) | > 100 |  | > 100 µM | > 100 |  |  | > 100 µM | > 100 µM |  |  |  |  |  | > 100 |  |  | > 100 |  |  | 
16 | COc1ccc(NC(=O)COC(=O)c2cccc3c(=O)c4ccccc4[nH]c23)cc1 | 28 | 58.9 | 37.2 µM | 30.7 | 32 | 55.9 | 67.4 µM | 60.1 µM |  |  |  |  |  | 38.5 |  |  |  |  |  | 
17 | COc1cc(C2CC(c3ccc(Nc4ccnc5cc(Cl)ccc45)cc3)=NN2C=O)cc(OC)c1OC (stereo unspecified) | 69.4 | 5.59 |  | > 100 | > 100 | > 100 | 10.9 µM | 17.7 µM | 1.83 |  | 5.87 µM | 20.4 |  |  | 9.98 | 2.56 | 8.63 | 3.36 | 3.49 µM | 1.82
18 | CN(C)c1ccc(/C=C/c2ccnc3ccccc23)cc1N | > 100 | 5.87 | 23.6 µM | 65.4 | 21.8 | 22.1 | 31.7 µM | 33.3 µM |  |  |  |  |  |  |  |  | 15.5 |  |  | 
19 | CCC[CH2][Sn]1([CH2]CCC)[O]C(=O)c2cccc(OC)c2[O]1 |  | 0.486 | 1.16 µM | 2.32 | 1.25 | 1.71 | 2.71 µM | 0.366 µM | < 0.0456 | 0.0719 µM | 1.1 µM | 0.265 | 0.0386 | 0.179 | 0.469 |  |  | 1.39 | 0.148 µM | 0.0261
20 | Cc1cc(Cl)ccc1NC(=O)CC1SC(N)=NC1=O (stereo unspecified) | > 100 |  | > 100 µM | > 100 | > 100 | > 100 | > 100 µM | > 100 µM |  |  |  |  |  | > 100 |  |  | > 100 |  |  | 
21 | N#CCC12CC=CCC1=C(O)C(=O)c1ccc(O)cc12 (stereo unspecified) | > 100 |  | > 100 µM | > 100 | > 100 | > 100 | > 100 µM | > 100 µM |  |  |  |  |  | > 100 |  |  | > 100 |  |  | 
22 | Cc1ccc(NC(=O)COC(=O)c2cccc3c(=O)c4ccccc4[nH]c23)cc1 |  | > 100 | > 100 µM | > 100 | 74.3 | > 100 | 92 µM | > 100 µM |  |  |  |  |  | 59.9 |  |  | > 100 |  |  | 
23 | O=C1CSC(=S)N1Cc1cccnc1 | 86.2 |  | > 100 µM | 5.21 | 48 | 38 | > 100 µM | 16.8 µM |  | 3.75 µM | 2.22 µM | 15.1 | 2.22 | 5.83 | 11.3 | 3.35 | 17.1 | 35.8 | 4.13 µM | 4.37
24 | CC1C=CC(C)C2(O)C(=O)NC(O)C12 (stereo unspecified) | > 100 |  | > 100 µM | > 100 |  | > 100 | > 100 µM | > 100 µM |  |  |  |  |  | > 100 |  |  | > 100 |  |  | 
25 | O=C(Nc1ccc([N+](=O)[O-])cc1C(=O)O)c1ccc([N+](=O)[O-])cc1 | 26.9 | 36.6 | 32.3 µM | 99.5 |  | > 100 | > 100 µM | > 100 µM |  |  |  |  |  |  |  |  | 57.7 |  |  | 
26 | COc1cc2c3c(n(CCCNC(=O)OCC4c5ccccc5-c5ccccc54)c(=O)c2cc1OC)-c1cc2c(cc1C3=O)OCO2 |  | > 100 | > 100 µM | > 100 | > 100 | > 100 | > 100 µM | > 100 µM | 48.8 | > 79.4 µM | > 100 µM | > 64.1 | 34.9 | > 100 | > 93.6 | > 28.3 | > 100 | > 64.7 | > 100 µM | 
27 | N#Cc1c(NC(=O)c2cccc3ccccc23)sc2c1CCCC2 | > 25 | > 25 | > 25 µM | > 25 | > 25 | > 25 |  | > 25 µM | 0.457 | 0.0115 µM | 0.105 µM | 0.0874 | 0.024 | 0.259 | 0.0918 | 0.0872 | > 25 |  | 0.0245 µM | 0.0422
